Measurements reported in patent publication US9505768B2, “Compositions and methods for modulating TLR4” (The Regents of the University of California, priority 2012, dated 2016).
“Also recorded” adds a separate entry of the source. Like-named read-outs stand apart in the source and are kept apart here.

Experiments:
[1] = test system: mouse bone marrow derived dendritic cells (mBMDC); assay: IL-6 induction in mouse bone marrow derived dendritic cells (ELISA); format: cell-based; settings: relative to Cmpd 1 / within series
Procedure: (§1) The above assays were utilized to compare the derivatives of the lead pyrimidoindole for their ability to activate mouse and human TLR4. […] Each cytokine induction curve was first converted to a percent activity curve, and then the AUC of the percent activity curve was calculated. The process of converting to a percent activity curve allowed subtracting background and adjusting for plate-to-plate variation.
(§2) BMDC were prepared from C57BL/6 mice as described. See e.g., Wu, C. […] BMDC (10^5 cells per well) were plated in 96-well plates in 200 μL of complete RPMI1640 supplemented with 10% fetal calf serum (FCS; Sigma Aldrich), 100 U/mL penicillin, and 100 μg/mL streptomycin (Invitrogen). […] After 18 h incubation, the cell culture supernatants were collected. LPS (purified LPS, Invivogen, San Diego, Calif.) or MPLA (1 μg/mL synthetic MPLA, Invivogen, San Diego, Calif.) were used as positive controls. […] The AUC was calculated from BMDC dose-response curves using Prism 5 (GraphPad, San Diego). Each cytokine induction curve was first converted to a percent activity curve, and then the AUC of the percent activity curve was calculated. The process of converting to a percent activity curve allowed subtracting background and adjusting for plate-to-plate variation.

[2] = test system: mouse bone marrow derived dendritic cells (mBMDC); assay: IP-10 induction in mBMDC (ELISA), surrogate marker of type I IFN; format: cell-based; settings: relative to Cmpd 1
Procedure: In addition to the production of inflammatory cytokines (IL-6, IL-12, TNFα, etc.) mediated by NFκB activation, TLR4 signaling can result in the production of type I interferons, a feature that is not only important for activation of dendritic cells leading to good adjuvant activity, but would also be important for rapid defense against a variety of pathogens, particularly viruses. […] To determine the relative ability of all compounds to induce the production of type 1 IFN, each was evaluated in mouse bone marrow derived dendritic cells as shown in Tables 1-3.
as §2
In addition, the levels of IP-10, a surrogate marker of type I IFN, in the supernatants were determined by ELISA (R&D Systems, Minneapolis, Minn.).

mouse TLR4 = biological target: T1, mouse TLR4 (Mus musculus, UniProt Q9JHF9+Q9QUK6); assay: Murine TLR4 HEK Blue NFκB/SEAP reporter assay; format: cell-based; settings: for mouse TLR4, area under curve (AUC) values normalized to Cmpd 1: mTLR4 HEK transfectoma, 312 nM to 10 μM, Cmpd 1 set at 100
T1 construct: host or cells: HEK293 (HEK Blue) cells with NFκB/SEAP reporter
T1 sequence (Q9QUK6 26-835): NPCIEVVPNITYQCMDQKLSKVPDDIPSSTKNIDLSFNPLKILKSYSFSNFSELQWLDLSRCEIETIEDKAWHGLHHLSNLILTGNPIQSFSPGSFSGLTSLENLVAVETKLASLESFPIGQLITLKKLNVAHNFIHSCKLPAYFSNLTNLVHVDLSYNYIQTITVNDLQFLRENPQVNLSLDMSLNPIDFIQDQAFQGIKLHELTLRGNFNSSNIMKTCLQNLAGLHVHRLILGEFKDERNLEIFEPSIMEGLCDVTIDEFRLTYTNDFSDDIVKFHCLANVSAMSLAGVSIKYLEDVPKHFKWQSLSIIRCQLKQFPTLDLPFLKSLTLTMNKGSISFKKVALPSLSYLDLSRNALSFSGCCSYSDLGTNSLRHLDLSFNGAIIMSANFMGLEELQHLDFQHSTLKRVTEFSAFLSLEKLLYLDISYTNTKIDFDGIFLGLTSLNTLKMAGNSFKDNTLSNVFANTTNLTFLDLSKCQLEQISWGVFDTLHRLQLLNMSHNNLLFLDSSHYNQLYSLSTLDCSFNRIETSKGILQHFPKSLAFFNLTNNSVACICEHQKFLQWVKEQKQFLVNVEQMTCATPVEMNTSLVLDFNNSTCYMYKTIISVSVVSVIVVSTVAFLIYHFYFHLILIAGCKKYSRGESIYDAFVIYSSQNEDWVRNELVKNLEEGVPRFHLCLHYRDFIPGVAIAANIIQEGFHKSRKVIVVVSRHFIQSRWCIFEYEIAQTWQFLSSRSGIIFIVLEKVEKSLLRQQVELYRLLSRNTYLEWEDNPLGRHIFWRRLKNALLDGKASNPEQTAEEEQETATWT
T1 sequence (Q9JHF9 19-160): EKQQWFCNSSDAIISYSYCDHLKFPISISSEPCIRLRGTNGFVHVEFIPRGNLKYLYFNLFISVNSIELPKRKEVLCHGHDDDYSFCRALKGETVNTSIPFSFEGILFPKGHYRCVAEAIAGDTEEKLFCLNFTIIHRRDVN
Procedure: as §1
(§3) The culture supernatants were harvested after a 20-24 h incubation period. SEAP activity in the supernatants was determined by a colorimetric assay, using either the SEAPorter Assay Kit (Imgenex), with absorbance read at 405 nm, or QuantiBlue (Invivogen), with absorbance read at 630 nm.

human TLR4 = biological target: T2, human TLR4 (Homo sapiens, UniProt O00206+Q9Y6Y9); assay: Human TLR4 HEK Blue NFκB/SEAP reporter assay; format: cell-based; settings: for human TLR4, values normalized to Cmpd 1: hTLR4 HEK293 transfectoma, all compounds tested at 10 μM, Cmpd 1 set at 100
T2 construct: host or cells: HEK293 (HEK Blue) cells with NFκB/SEAP reporter
Procedure: as §1, §3

C57BL/6 mice [3] = test system: C57BL/6 mice
C57BL/6 mice [4] = assay: Protection from LPS/galactosamine-induced lethal liver injury; format: in vivo, mouse; settings: for Survival: i.p. pretreatment (500 nmol Cmpd, 40 μg MPLA), next day LPS 0.2 μg + galactosamine 12 mg per animal, survivors/treated
Procedure: FIGS. 11A-11B depict that administration of Cmpd 42 and Cmpd 33 protects hosts from LPS-induced lethal liver injury. FIG. 11A: Schematic showing that C57BL/6 mice were intraperitoneously injected with 500 nmol Cmpd. 42 (n=11) or Cmpd 33 (n=11). 40 μg MPLA (n=9) and vehicle (n=9) were used as positive and negative controls, respectively. Next day, mice were challenged with LPS (0.2 μg/animal) and galactosamine (12 mg/animal). FIG. 11B: Histogram showing results of sera collected 1.5 h post challenge and measured for TNFα. *:p<0.05 compared to vehicle treated mice.
Lipopolysaccharide (LPS), a TLR4 ligand, causes severe lethal liver injury when administered with galactosamine. Pretreatment of mice with MPLA is known to improve the survival in this model. To study whether Cmpd 42 and Cmpd 33 are able to act as immunomodulatory agents similar to MPLA, the mice were treated with Cmpd 42 or Cmpd 33 and challenged with LPS/galatosamine the next day, as depicted in FIG. 11A. Over 80% of Cmpd 42 and 100% of Cmpd 33-treated mice survived.

[5] = test system: mouse bone marrow derived dendritic cells (mBMDC); assay: IL-6 induction in mouse bone marrow derived dendritic cells (ELISA); format: cell-based; settings: 5 μM overnight, vs C57BL/6 WT
[6] = test system: mouse bone marrow derived dendritic cells (mBMDC); assay: IP-10 induction in mBMDC (ELISA), surrogate marker of type I IFN; format: cell-based; settings: 5 μM overnight, vs C57BL/6 WT

T2 sequence (O00206 24-839): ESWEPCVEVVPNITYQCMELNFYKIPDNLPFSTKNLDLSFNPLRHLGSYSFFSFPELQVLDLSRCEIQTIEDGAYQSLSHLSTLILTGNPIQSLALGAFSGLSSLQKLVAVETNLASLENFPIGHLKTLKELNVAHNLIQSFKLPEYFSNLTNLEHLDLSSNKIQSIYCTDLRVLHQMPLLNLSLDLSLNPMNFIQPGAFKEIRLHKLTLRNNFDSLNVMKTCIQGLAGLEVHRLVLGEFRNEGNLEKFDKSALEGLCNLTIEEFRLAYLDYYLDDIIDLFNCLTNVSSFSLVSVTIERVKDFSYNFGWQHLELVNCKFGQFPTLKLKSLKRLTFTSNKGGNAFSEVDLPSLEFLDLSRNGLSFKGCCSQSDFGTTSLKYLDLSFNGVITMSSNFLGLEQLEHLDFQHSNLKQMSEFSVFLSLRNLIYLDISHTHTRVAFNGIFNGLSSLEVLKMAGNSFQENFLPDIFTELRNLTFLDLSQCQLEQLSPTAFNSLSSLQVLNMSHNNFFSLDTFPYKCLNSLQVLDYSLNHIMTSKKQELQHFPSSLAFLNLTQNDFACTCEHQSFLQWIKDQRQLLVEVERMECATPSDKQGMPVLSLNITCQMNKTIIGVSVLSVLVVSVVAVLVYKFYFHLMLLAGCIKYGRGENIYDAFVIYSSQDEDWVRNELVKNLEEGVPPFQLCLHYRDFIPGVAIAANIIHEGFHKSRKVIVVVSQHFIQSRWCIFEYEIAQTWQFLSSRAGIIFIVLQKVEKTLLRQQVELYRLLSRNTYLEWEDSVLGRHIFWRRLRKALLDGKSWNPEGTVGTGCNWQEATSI
T2 sequence (Q9Y6Y9 19-160): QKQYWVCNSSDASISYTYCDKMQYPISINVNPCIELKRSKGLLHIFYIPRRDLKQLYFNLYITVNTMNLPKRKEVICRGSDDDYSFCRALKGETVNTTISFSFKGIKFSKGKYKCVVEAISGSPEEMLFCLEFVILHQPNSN

Compound	IL-6 activity in mBMDC (in words) [1]	IP-10 production in mBMDC (in words) [2]	mouse TLR4, area under curve (AUC) values normalized to Cmpd 1 (mouse TLR4)	human TLR4, values normalized to Cmpd 1 (human TLR4)	other results
CC(C)(C)CCNC(=O)CSc1nc2c([nH]c3ccccc32)c(=O)n1-c1ccccc1 [Compound 28, N-(3,3-dimethylbutyl)-2-((4-oxo-3-phenyl-4,5-dihydro-3H-pyrimido[5,4-b]indol-2-yl)thio)acetamide]	among the most active of the alkyls; also recorded: high IL-6	high IP-10 production	126	72	–
monophosphoryl lipid A [MPLA, reference compound]	–	–	–	–	Survival (C57BL/6 mice [3]; i.p. 500 nmol Cmpd 42, MPL 40 μg or LPS 0.2 μg mixed with galactosamine 12 mg, survivors/treated): 0/5; Serum TNFα levels (C57BL/6 mice [3]; with galactosamine 12 mg/animal, up to 15 μmol/animal Cmpd 33, 1 μmol/animal Cmpd 42, 10 μg/animal MPLA): induced detectable TNFα; Survival (C57BL/6 mice [4]): 8/9
O=C(CSc1nc2c([nH]c3ccccc32)c(=O)n1CCc1ccccc1)NC1CCCCC1 [Compound 40, N-cyclohexyl-2-((4-oxo-3-phenethyl-4,5-dihydro-3H-pyrimido[5,4-b]indol-2-yl)thio)acetamide]	total loss of activity	–	1	1	–
O=C(CSc1nc2c([nH]c3ccccc32)c(=O)n1-c1ccccc1)NCC1CCCO1 (stereo not drawn) [Compound 33, 2-((4-oxo-3-phenyl-4,5-dihydro-3H-pyrimido[5,4-b]indol-2-yl)thio)-N-((tetrahydrofuran-2-yl)methyl)acetamide]	diminished IL-6 release	nearly equivalent induction of IP-10	21	13	IL-6 secretion in MyD88 null dendritic cells [5]: significantly impaired; IP-10 induction in LPS mutant (Trif lps/lps) cells [6]: significantly decreased; maximum tolerated dose relative to MPLA (C57BL/6 mice [3]; liver injury model with galactosamine): over 100 times; serum TNFα (C57BL/6 mice [4]; […] post challenge, compared to vehicle treated mice): significantly lower level; mice survived (C57BL/6 mice [4]; i.p. pretreatment 500 nmol, LPS/galactosamine challenge next day): 100%; Survival (C57BL/6 mice [4]): 11/11
COC(=O)CCCn1c2ccccc2c2nc(SCC(=O)NC3CCCCC3)n(-c3ccccc3)c(=O)c21 [Compound 44, Methyl 4-(2-((2-(cyclohexylamino)-2-oxoethyl)thio)-4-oxo-3-phenyl-3H-pyrimido[5,4-b]indol-5(4H)-yl)butanoate]	very little IL-6	–	9	19	mouse TLR4 reporter cell activation (in words) (mouse TLR4): good activity; human TLR4 reporter cell activation (in words) (human TLR4): good activity
O=C(CSc1nc2c([nH]c3ccccc32)c(=O)n1C1CCCCC1)NC1CCCC1 [Compound 41, 2-((3-Cyclohexyl-4-oxo-4,5-dihydro-3H-pyrimido[5,4-b]indol-2-yl)thio)-N-cyclopentylacetamide]	partial loss of activity	–	19	33	–
O=C(CSc1nc2c([nH]c3ccccc32)c(=O)n1-c1ccccc1)NC1CCCCCC1 [Compound 9, N-Cycloheptyl-2-((4-oxo-3-phenyl-4,5-dihydro-3H-pyrimido[5,4-b]indol-2-yl)thio)acetamide]	the most active; also recorded: high IL-6	high IP-10 production	99	100	–
CCC(C)CCNC(=O)CSc1nc2c([nH]c3ccccc32)c(=O)n1-c1ccccc1 (stereo not drawn) [Compound 29, N-(3-methylpentyl)-2-((4-oxo-3-phenyl-4,5-dihydro-3H-pyrimido[5,4-b]indol-2-yl)thio)acetamide]	diminished IL-6 release	nearly equivalent induction of IP-10	29	17	–
O=C(CSc1nc2c([nH]c3ccccc32)c(=O)n1-c1ccccc1)NC1CCC1 [Compound 12, N-cyclobutyl-2-((4-oxo-3-phenyl-4,5-dihydro-3H-pyrimido[5,4-b]indol-2-yl)thio)acetamide]	diminished IL-6 release	nearly equivalent induction of IP-10	18	32	–
O=C(CSc1nc2c([nH]c3ccccc32)c(=O)n1-c1ccccc1)NC1CCCCCCC1 [Compound 10, N-cyclooctyl-2-((4-oxo-3-phenyl-4,5-dihydro-3H-pyrimido[5,4-b]indol-2-yl)thio)acetamide]	the most active; also recorded: high IL-6	high IP-10 production	95	64	–
CCCC(C)NC(=O)CSc1nc2c([nH]c3ccccc32)c(=O)n1-c1ccccc1 (stereo not drawn) [Compound 30, 2-((4-oxo-3-phenyl-4,5-dihydro-3H-pyrimido[5,4-b]indol-2-yl)thio)-N-(pentan-2-yl)acetamide]	diminished IL-6 release	nearly equivalent induction of IP-10	17	13	–
CCCCNC(=O)CSc1nc2c([nH]c3ccccc32)c(=O)n1-c1ccccc1 [Compound 23, N-butyl-2-((4-oxo-3-phenyl-4,5-dihydro-3H-pyrimido[5,4-b]indol-2-yl)thio)acetamide]	somewhat less active	–	31	32	–
